ChEMBL document CHEMBL4393720, “Design, synthesis and biological evaluation of bromophenol-thiazolylhydrazone hybrids inhibiting the interaction of translation initiation factors eIF4E/eIF4G as multifunctional agents for cancer treatment” (Eur J Med Chem, 2019)
Activity calls are given as the source filed them. The calls are words filed in the database; no cut-off is given here.

How the values were obtained:
[1] = Inhibition of PI3K/Akt/mTOR signalling pathway in human A549 cells assessed as reduction in PI3K phosphorylation at 1 to 5 uM incubated for 48 hrs by Western blot analysis; type: cell-based
A549 [2] = assay: Induction of autophagy in human A549 cells assessed as change in […] expression at 1 to 5 uM incubated for 48 hrs by Western blot analysis; type: functional, cell-based
[3] = Acute toxicity in SPF Kunming mouse assessed as body weight at 1000 mg/kg, po administered as single dose measured at day 7 (reference value: 30.2g); type: organism-based; details: in vivo
[4] = Toxicity in athymic nude mouse xenografted with human A549 cells assessed as changes in body weight at 25 to 50 mg/kg, ip administered once daily for 21 days; type: organism-based; details: in vivo, 504 h
HepG2 = assay: Antiproliferative activity against human HepG2 cells assessed as inhibition of cell growth incubated for 48 hrs by MTT assay; type: functional, cell-based; details: HepG2, 48 h
A549 [5] = assay: Induction of apoptosis in human A549 cells assessed as activation of PARP at 1 to 5 uM incubated for 48 hrs by Western blot analysis; type: functional, cell-based
A549 [6] = assay: Antiproliferative activity against human A549 cells assessed as inhibition of cell growth incubated for 48 hrs by MTT assay; type: functional, cell-based; details: A549, 48 h
[7] = Total plasma clearance in male Sprague-Dawley rat at 2 mg/kg, iv measured up to 24 hrs by LC/MS-MS analysis; type: ADME, organism-based
[8] = MRT in female Sprague-Dawley rat at 10 mg/kg, po measured up to 24 hrs by LC/MS-MS analysis; type: ADME, organism-based; details: in vivo
A549 [9] = assay: In vivo inhibition of PI3K/Akt/mTOR signalling pathway in human A549 cells xenografted in athymic nude mouse assessed as decrease in phosphorylation of mTOR at 25 to 50 mg/kg, ip administered once daily for 21 days by Western blot analysis; type: functional, organism-based
[10] = MRT in male Sprague-Dawley rat at 2 mg/kg, iv measured up to 24 hrs by LC/MS-MS analysis; type: ADME, organism-based; details: in vivo
[11] = target: Eukaryotic translation initiation factor 4E (Homo sapiens) (UniProt P06730); assay: Inhibition of eIF4E phosphorylation in human A549 cells incubated for 48 hrs by immunofluorescence method; type: cell-based
[12] = AUC (0 to 24 hrs) in female Sprague-Dawley rat at 10 mg/kg, po measured up to 24 hrs by LC/MS-MS analysis; type: ADME, organism-based; design: time < 24 hr, dose 10 mg/kg, route oral; details: in vivo
[13] = Acute toxicity in SPF Kunming mouse assessed as body weight at 500 mg/kg, po administered as single dose measured at day 7 (reference value: 30.2g); type: organism-based; details: in vivo
HUVEC = assay: Antiproliferative activity against human HUVEC cells assessed as inhibition of cell growth incubated for 48 hrs by MTT assay; type: cell-based
A549 [14] = assay: Antitumor activity against human A549 cells xenografted in athymic nude mouse assessed as necrosis of tumor cells and loosely packed cells at 25 to 50 mg/kg, ip administered once daily for 21 days by hematoxylin and eosin staining based microscopic analysis; type: functional, organism-based
[15] = target: Eukaryotic translation initiation factor 4E (Homo sapiens) (UniProt P06730); assay: Inhibition of eIF4E phosphorylation in human A549 cells assessed as decrease in cyclin D1 level at 1 to 5 uM incubated for 48 hrs by western blot analysis; type: cell-based
A549 [16] = assay: In vivo inhibition of PI3K/Akt/mTOR signalling pathway in human A549 cells xenografted in athymic nude mouse assessed as decrease in phosphorylation of Akt at 25 to 50 mg/kg, ip administered once daily for 21 days by Western blot analysis; type: functional, organism-based
A549 [17] = assay: Antitumor activity against human A549 cells xenografted in athymic nude mouse assessed as decrease in tumor growth at 50 mg/kg, ip administered once daily for 21 days; type: functional; details: 504 h
[18] = Inhibition of PI3K/Akt/mTOR signalling pathway in human A549 cells assessed as reduction in mTOR phosphorylation at 1 to 5 uM incubated for 48 hrs by Western blot analysis; type: cell-based
[19] = Volume of distribution in steady state in male Sprague-Dawley rat at 2 mg/kg, iv measured up to 24 hrs by LC/MS-MS analysis; type: ADME, organism-based; details: in vivo, read-out: Vdss
[20] = AUC (0 to 24 hrs) in male Sprague-Dawley rat at 2 mg/kg, iv measured up to 24 hrs by LC/MS-MS analysis; type: ADME, organism-based; design: dose 2 mg/kg, time < 24 hr, route intravenous; details: in vivo
[21] = Cmax in male Sprague-Dawley rat at 10 mg/kg, po measured up to 24 hrs by LC/MS-MS analysis; type: ADME, organism-based; design: dose 10 mg/kg, route oral; details: in vivo
Caco-2 = assay: Antiproliferative activity against human Caco2 cells assessed as inhibition of cell growth incubated for 48 hrs by MTT assay; type: functional, cell-based; details: Caco-2, 48 h
[22] = target: Eukaryotic translation initiation factor 4E (Homo sapiens) (UniProt P06730); assay: Inhibition of eIF4E phosphorylation in human A549 cells assessed as decrease in c-myc expression at 1 to 5 uM incubated for 48 hrs by western blot analysis; type: cell-based
[23] = Half life in male Sprague-Dawley rat at 2 mg/kg, iv measured up to 24 hrs by LC/MS-MS analysis; type: ADME, organism-based; details: in vivo
[24] = Toxicity in athymic nude mouse xenografted with human A549 cells assessed as effect on heart morphological changes at 25 to 50 mg/kg, ip administered once daily for 21 days by H and E staining based assay; type: organism-based; details: in vivo, 504 h
[25] = Subacute toxicity in SPF Kunming mouse assessed as mortality at 2000 mg/kg, po administered once a day for 14 days; type: organism-based; details: in vivo, 336 h
A549 [26] = assay: Decrease in phosphorylation of Ki67 in human A549 cells xenografted in athymic nude mouse at 25 to 50 mg/kg, ip administered once daily for 21 days by immunocytochemistry; type: functional, organism-based
[27] = Subacute toxicity in SPF Kunming mouse assessed as body weight at 2000 mg/kg, po administered once a day for 14 days (reference value: 32g); type: organism-based; details: in vivo, 336 h
[28] = Oral bioavailability in male Sprague-Dawley rat at 10 mg/kg measured up to 24 hrs by LC/MS-MS analysis; type: ADME, organism-based; details: in vivo
A549 [29] = assay: In vivo inhibition of PI3K/Akt/mTOR in human A549 cells xenografted in athymic nude mouse assessed as decrease in phosphorylation of 4EBP1 at 25 to 50 mg/kg, ip administered once daily for 21 days by Western blot analysis; type: functional, organism-based
[30] = MRT in male Sprague-Dawley rat at 10 mg/kg, po measured up to 24 hrs by LC/MS-MS analysis; type: ADME, organism-based; details: in vivo
[31] = Subacute toxicity in SPF Kunming mouse assessed as behavioural abnormalities at 2000 mg/kg, po administered once a day for 14 days; type: organism-based; details: in vivo, 336 h
A549 [32] = assay: Induction of apoptosis in human A549 cells at 1 to 5 uM incubated for 48 hrs by annexin-V and propidium iodide staining based flow cytometric analysis; type: functional, cell-based
[33] = Inhibition of PI3K/Akt/mTOR in human A549 cells assessed as increase in eIF4E/4EBP1 interaction incubated for 48 hrs by m7GTP pull down assay; type: cell-based
A549 [34] = assay: Inhibition of eIF4E/eIF4G interaction in human A549 cells at 2.5 uM incubated for 24 hrs by proximity ligation assay; type: cell-based
[35] = Total plasma clearance in female Sprague-Dawley rat at 2 mg/kg, iv measured up to 24 hrs by LC/MS-MS analysis; type: ADME, organism-based

Eukaryotic translation initiation factor 4E (Homo sapiens), sequence (P06730 whole entry): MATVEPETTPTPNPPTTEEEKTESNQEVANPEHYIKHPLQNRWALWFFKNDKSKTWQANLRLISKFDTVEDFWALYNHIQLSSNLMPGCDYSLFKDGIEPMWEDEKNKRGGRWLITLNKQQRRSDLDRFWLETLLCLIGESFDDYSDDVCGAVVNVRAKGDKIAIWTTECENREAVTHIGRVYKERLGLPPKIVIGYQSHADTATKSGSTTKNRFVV

SMILES: Fc1ccc(/C=N/Nc2nc(-c3ccc(C(F)(F)F)cc3)cs2)cc1F
- inhibition [1]: Active
- Activity (A549 [2]): Active
- Activity [3]: 30.5 g
- Activity [4]: Non-Toxic
- IC50 (HepG2): 14.5 µM
- Activity (A549 [5]): Active
- IC50 (A549 [6]): 2.61 µM
- clearance [7]: 0.5 mL/min/kg
- MRT [8]: 1.62 h
- inhibition (A549 [9]): Active
- MRT [10]: 4.42 h
- inhibition [11]: Active
- AUC(0-t) at 24 h [12]: 8.25 µM·h
- Activity [13]: 29.1 g
- IC50 (HUVEC): 79.5 µM
- Activity (A549 [14]): Active
- inhibition [15]: Active
- inhibition (A549 [16]): Active
- inhibition in vivo at 50 mg/kg (A549 [17]): 75%
- inhibition [18]: Active
- Vd [19]: 0.12 L/kg
- AUC(0-t) at 24 h [20]: 155 µM·h
- Cmax [21]: 650 nM
- IC50 (Caco-2): 14.6 µM
- inhibition [22]: Active
- half-life [23]: 2.83 h
- Activity [24]: Non-Toxic
- Activity [25]: Non-Toxic
- inhibition (A549 [26]): Active
- Activity [27]: 30.7 g
- bioavailability [28]: 17.2%
- inhibition (A549 [29]): Active
- MRT [30]: 1.83 h
- Activity [31]: Non-Toxic
- Activity (A549 [32]): Active
- Activity [33]: Active
- inhibition (A549 [34]): Active
- clearance [35]: 0.667 mL/min/kg
